Article PMC8951016, “Computational Design and Biological Evaluation of Analogs of Lupin Peptide P5 Endowed with Dual PCSK9/HMG-CoAR Inhibiting Activity” (Pharmaceutics, 2022)

System: LDLR on HepG2 cell surface
Test: In-cell western (ICW), LDLR on HepG2 surface in the presence of PCSK9
Type: cell-based, human
Conditions: 50 µM + PCSK9 4 µg/mL; Figure 3B
Method: For the experiments, a total of 3 × 10^4 HepG2 cells/well were seeded in 96-well plates and treated with 4.0 μg/mL PCSK9-WT and 4.0 μg/mL PCSK9 + peptides P5 and/or P5 analogs (50 µM) and vehicle (H2O) for 2 h at 37 °C under 5% CO2 atmosphere. Thus, cells underwent to ICW assay following conditions already optimized. See Supplementary Materials for detailed information. […]
cLex Co., Nagano, Japan). The peptides (P5, P5-Best, P-H6A, and P5-S7A) were synthe-sized by the company GeneScript (Piscataway, NJ, USA) at >95% purity. The antibody against HMG-CoAR was bought from Abcam (Cambridge, UK). […]
HMG-CoAR Aactivity Assay. […] Subsequently, the samples were mixed and the absorbance at 340 nm read by the microplate reader Synergy H1 (Winooski, VT, USA) at time 0 and 10 min. The HMG-CoAR-dependent oxidation of NADPH and the inhibition properties of peptides were measured by absorbance reduction, which is directly proportional to enzyme activ- […]
In Vitro PCSK9-LDLR Binding Assay. […] The reaction was stopped with 2.0 M sulfuric acid and the absorbance at 450nm was measured using the Synergy H1 fluorescent plate reader […]

## LILPKHSDAD [Peptide P5, natural peptide derived from a peptic lupin protein hydrolysate]
  LDLR level on cell surface in presence of PCSK9: restored
